Measured values: patent US8753841B2, “Enzyme that catalyzes a peptide-forming reaction from a carboxy component and an amine component, microbe producing the same, and a method of producing a dipeptide using the enzyme or microbe” (Ajinomoto Co., Inc., priority 2002, dated 2014)
*: point of attachment. Boc = CC(C)(C)OC(=O)*

Key:
[1] = system: peptide-forming enzyme from Empedobacter brevis strain FERM BP-8113; assay: Enzyme inhibitors: effect on L-alanyl-L-glutamine production by the Mono S fraction enzyme; format: biochemical; conditions: for inhibition of the enzyme by serine enzyme inhibitors (in words): pH 9.0, 25° C.
[2] = Comparison of ability to catalyze peptide formation with known enzymes; format: biochemical; conditions: enzyme of present invention = 100.0
Source text: The peptide-forming ability of the present enzyme was compared with that of known enzymes. Carboxypeptidase Y described in EP 278787A1 and the thiol endopeptidases (ficin, papain, bromelain, and chymopapain) described in EP 359399B1 were used as the known enzymes, and they were used in the form of purified enzymes (manufactured by Sigma). The enzyme uniformly purified in Example 3 was used as a source of the present enzyme of the present invention. […] As has been described above, the present enzyme was verified to have an extremely high peptide production rate unlike any known enzyme in the prior art. Furthermore, the enzyme of the present invention is a dimer having a molecular weight of about 75,000. In contrast, the molecular weight of the carboxypeptidase Y has been reported to be about 61,000, while the molecular weight of thiol endopeptidase has been reported to be about 23,000 to 36,000. Thus, the L-alanyl-L-glutamine production rate of the enzyme of the present invention as compared to those of the carboxypeptidase Y and the thiol endopeptidase is even greater when the rate is expressed per molecular weight than when it is expressed per unit weight as indicated in the examples.

[3] = system: Empedobacter brevis strain FERM BP-8113 microbial cells; assay: Production of peptide using microbial cells of Empedobacter brevis; format: cell-based; conditions: 1 mL 100 g/L cell suspension + 1 mL buffer with 200 mM carboxy component, 400 mM amino acid, 10 mM EDTA, pH 9.0, 18° C., 2 hours
Protocol: A 50 mL medium (pH 6.2) containing 5 grams (g) of glucose, 5 g of ammonium sulfate, 1 g of monopotassium phosphate, 3 g of dipotassium phosphate, 0.5 g of magnesium sulfate, 10 g of yeast extract and 10 g of peptone in 1 liter (L) was transferred to a 500 mL Sakaguchi flask and sterilized at 115° C. for 15 minutes.
Microbial cells were collected by centrifuging (10,000 rounds per minute (rpm), 15 minutes) the culture broth obtained in Example 1, followed by suspending them to a concentration of 100 g/L in 100 mM borate buffer (pH 9.0) containing 10 mM EDTA. After respectively adding 1 mL of the suspension to 1 mL each of 100 mM borate buffer solutions (pH 9.0) containing 10 mM EDTA, 200 mM of the following carboxy components, and 400 mM of the following amino acids to make a final volume of 2 mL, the reaction was carried out at 18° C. for 2 hours.

[4] = system: peptide-forming enzyme from Empedobacter brevis strain FERM BP-8113; assay: Substrate specificity of enzyme (peptide production from carboxy and amine components); format: biochemical; design: key to Formed peptide (mM): +: those peptides for which production was confirmed but which were unable to be quantified due to the absence of a standard; a trace amount; conditions: L-amino acid methyl ester hydrochloride 100 mM, pH 9.0, 25° C., 3 hours
Source text: Ester specificity was examined in the case of using L-amino acid ester for the carboxy component. […] HCl represents hydrochloride in Table 4.
Peptide production was examined in the case of using L-alanine methyl ester for the carboxy component and using various L-amino acids for the amine component.
Peptide production was examined in the case of using various types of L-amino acid methyl esters for the carboxy component and using L-glutamine for the amine component. […] Furthermore, Tween-80 was added to the reaction system to a final concentration of 0.1% in the case of using L-Trp-OMe and L-Tyr-OMe.

[5] = system: enzyme derived from Sphingobacterium sp. strain FERM BP-8124; assay: Substrate specificity of enzyme derived from Sphingobacterium sp.; format: biochemical; design: key to Produced peptide (mM): +: those peptides for which production was confirmed but which were unable to be quantified due to the absence of a standard; a trace amount; conditions: carboxy component 100 mM, 0.33 units enzyme, pH 9.0, 25° C., 1.5 hours; for Produced peptide (mM): Table 15-4
[6] = system: peptide-forming enzyme from Empedobacter brevis strain FERM BP-8113; assay: Substrate specificity of enzyme (peptide production from carboxy and amine components); format: biochemical; conditions: pH 9.0, 25° C., 3 hours; for Formed peptide: L-amino acid amide hydrochloride 100 mM as carboxy component, L-amino acid 150 mM
[7] = system: peptide-forming enzyme from Empedobacter brevis strain FERM BP-8113; assay: as above; format: biochemical; design: key: +: those peptides for which production was confirmed but which were unable to be quantified due to the absence of a standard; a trace amount; conditions: 0.1 unit enzyme, 25° C.
[8] = system: peptide-forming enzyme from Empedobacter brevis strain FERM BP-8113; assay: as above; format: biochemical; design: key: +: those for which production was confirmed but which were unable to be quantified due to the absence of a standard; a trace amount
[9] = inhibitor at 10 mM, borate buffer pH 9.0, 25° C., 5 minutes, 100 = absence of enzyme inhibitor
[10] = Table 15-3, amine component 150 mM
[11] = carboxy component 100 mM, amine component 150 mM, reaction time 3 hr
[12] = oligopeptide production, amount of enzyme 0.2 unit, pH 9.0, 25° C., 3 hours
[13] = Table 15-1, amine component 150 mM

Chain of enzyme derived from Sphingobacterium sp. strain FERM BP-8124 (as listed by the source): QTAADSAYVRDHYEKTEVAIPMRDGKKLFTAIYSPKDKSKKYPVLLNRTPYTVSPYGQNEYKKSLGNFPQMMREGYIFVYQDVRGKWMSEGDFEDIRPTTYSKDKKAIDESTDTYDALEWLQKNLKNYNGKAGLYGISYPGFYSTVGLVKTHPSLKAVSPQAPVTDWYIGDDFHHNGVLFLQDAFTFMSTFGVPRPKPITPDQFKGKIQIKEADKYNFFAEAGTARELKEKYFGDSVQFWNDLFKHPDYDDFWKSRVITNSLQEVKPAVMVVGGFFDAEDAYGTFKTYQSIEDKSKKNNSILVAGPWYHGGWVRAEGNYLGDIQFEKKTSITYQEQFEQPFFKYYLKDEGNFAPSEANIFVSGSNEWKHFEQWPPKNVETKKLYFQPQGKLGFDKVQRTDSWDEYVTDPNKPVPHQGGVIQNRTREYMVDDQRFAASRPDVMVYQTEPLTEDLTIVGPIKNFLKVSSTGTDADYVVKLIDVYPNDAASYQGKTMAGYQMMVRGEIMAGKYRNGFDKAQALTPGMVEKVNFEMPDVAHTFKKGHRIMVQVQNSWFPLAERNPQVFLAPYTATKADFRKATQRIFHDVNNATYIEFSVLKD

O=C(O)CN(CCN(CC(=O)O)CC(=O)O)CC(=O)O [EDTA, ethylene diamine tetraacetic acid]
Relative activity of L-Ala-L-Gln production (%) [1, 9]: 96%

O=C(O)CI [Monoiodoacetate]
Relative activity of L-Ala-L-Gln production (%) ([1]; pH 9): 101%

CCN1C(=O)C=CC1=O [N-Ethyl maleimide]
Relative activity of L-Ala-L-Gln production (%) [1, 9]: 110%

O=S(=O)(F)Cc1ccccc1 [Phenylmethylsulfonyl fluoride]
Relative activity of L-Ala-L-Gln production (%) [1, 9]: 115% | inhibition of the enzyme by serine enzyme inhibitors (in words) ([1]; inhibitor at 10 mM, 5 minutes): not inhibited

c1cnc2c(c1)ccc1cccnc12 [o-Phenanthroline]
Relative activity of L-Ala-L-Gln production (%) [1, 9]: 96%

N=C(N)Nc1ccc(C(=O)Oc2ccc([N+](=O)[O-])cc2)cc1 [p-Nitrophenyl-p′-guanidino benzoate, p-nitrophenyl-p′-guanidinobenzoate]
Relative activity of L-Ala-L-Gln production (%) [1, 9]: 0.1% | inhibition of the enzyme by serine enzyme inhibitors (in words) ([1]; inhibitor at 10 mM, 5 minutes): inhibited

Bromelain
Ratio of L-Ala-L-Gln production rate per enzyme unit weight [2]: 0.0010

Chymopapain: thiol endopeptidase described in EP 359399B1, purified enzyme manufactured by Sigma
Ratio of L-Ala-L-Gln production rate per enzyme unit weight [2]: 0.0013

Ficin
Ratio of L-Ala-L-Gln production rate per enzyme unit weight [2]: 0.0017

Gly-L-His
Formed peptide [3]: 22.1 mM | Formed peptide ([4]; L-amino acid 150 mM): 31.6 mM | Produced peptide [5, 10]: 36.2 mM

Gly-L-Phe
Produced peptide ([6]; oligopeptide production, amount of enzyme 0.1 unit): 17.3 mM | Formed peptide ([4]; L-amino acid 150 mM): 44.0 mM | Produced peptide [5, 10]: 20.0 mM

H-2-Nal-H-Gln-OH
Produced peptide (mM) ([7]; carboxy component 40 mM, amine component 40 mM, reaction time 3 hr): tr

H-Ala-2-Nal-OH
Produced peptide (mM) ([8]; carboxy component 20 mM, amine component 20 mM, 0.1 unit enzyme, 25° C., reaction time 3 hr): +

H-CHA-Phe-OH
Produced peptide (mM) ([8]; carboxy component 40 mM, amine component 40 mM, 0.1 unit enzyme, 25° C., reaction time 3 hr): +

H-Lys(Boc)-Gln-OH
Produced peptide (mM) ([8]; carboxy component 100 mM, amine component 150 mM, 0.1 unit enzyme, 25° C., reaction time 2 hr): +

H-Ser(tBu)-Gln-OH
Produced peptide (mM) ([7]; carboxy component 100 mM, amine component 150 mM, reaction time 2 hr): tr

H-p-F-Phe-H-Gln-OH
Produced peptide (mM) [7, 11]: tr

H-t-Leu-H-Gln-OH
Produced peptide (mM) [7, 11]: tr

H—Cl—F-Phe-H-Gln-OH
Produced peptide (mM) ([7]; carboxy component 25 mM, amine component 50 mM, reaction time 3 hr): tr

H—N—Me-Ala-Phe-OH
Produced peptide (mM) [7, 11]: tr

L-Ala-Gly-Gly-L-Phe-L-Met
Produced peptide (mM) [8, 12]: +

L-Ala-Gly-L-Phe
Produced peptide (mM) ([8]; oligopeptide production, amount of enzyme 0.1 unit, pH 9.0, 25° C., 3 hours): +

L-Ala-L-Arg
Formed peptide [3]: 72.1 mM | Produced peptide [5, 13]: 72.2 mM

L-Ala-L-His
Formed peptide [3]: 52.1 mM | Formed peptide [6]: 3.9 mM | Produced peptide [5, 13]: 73.6 mM | Produced peptide (mM) ([5]; amine component 150 mM): tr

L-Ala-L-Leu
Formed peptide [3]: 38.2 mM | Produced peptide [5, 13]: 33.0 mM

L-Ala-L-Met
Formed peptide [3]: 68.3 mM | Formed peptide [6]: 3.4 mM | Produced peptide [5, 13]: 86.9 mM | Produced peptide (mM) ([5]; amine component 150 mM): tr

L-Ala-L-Phe
Formed peptide [3]: 62.4 mM | Produced peptide [5, 13]: 69.5 mM

L-Ala-L-Phe-L-Met
Produced peptide (mM) [8, 12]: +

L-Ala-L-Ser
Formed peptide [3]: 51.3 mM | Produced peptide [5, 13]: 43.8 mM

L-Ile-L-Met
Formed peptide [3]: 8.3 mM | Formed peptide ([4]; L-amino acid 150 mM): 10.0 mM | Produced peptide [5, 10]: 5.1 mM

L-Met-L-Phe
Formed peptide [3]: 28.5 mM | Formed peptide ([4]; L-amino acid 150 mM): 34.0 mM | Produced peptide [5, 10]: 8.9 mM

L-Phe-L-Gln
Formed peptide [6]: 0.2 mM | Formed peptide ([4]; 150 mM L-glutamine): 0.9 mM | Produced peptide ([5]; Table 15-2, L-Gln 150 mM): 0.8 mM

L-Ser-L-Gln
Formed peptide ([4]; 150 mM L-glutamine): 24.0 mM | Produced peptide ([5]; Table 15-2, L-Gln 150 mM): 12.9 mM

L-Ser-L-Met
Formed peptide ([4]; L-amino acid 150 mM): 12.5 mM | Produced peptide [5, 10]: 7.6 mM

L-Ser-L-Phe
Formed peptide ([4]; L-amino acid 150 mM): 20.3 mM | Produced peptide [5, 10]: 4.3 mM

L-Ser-L-Ser
Formed peptide [3]: 29.0 mM | Formed peptide ([4]; L-amino acid 150 mM): 38.0 mM | Produced peptide [5, 10]: 9.9 mM

L-Thr-Gly
Formed peptide ([4]; L-amino acid 150 mM): 9.4 mM | Produced peptide [5, 10]: 0.4 mM

L-Thr-L-Ala
Formed peptide ([4]; L-amino acid 150 mM): 9.4 mM | Produced peptide [5, 10]: 5.8 mM

L-Thr-L-Gln
Formed peptide [6]: 0.3 mM | Formed peptide ([4]; 150 mM L-glutamine): 81.9 mM | Produced peptide ([5]; Table 15-2, L-Gln 150 mM): 36.1 mM

L-Thr-L-Leu
Formed peptide [3]: 23.0 mM | Formed peptide ([4]; L-amino acid 150 mM): 28.4 mM | Produced peptide [5, 10]: 15.3 mM

L-Thr-L-Met
Formed peptide ([4]; L-amino acid 150 mM): 38.6 mM | Produced peptide [5, 10]: 28.9 mM

L-Thr-L-Val
Formed peptide ([4]; L-amino acid 150 mM): 0.7 mM | Produced peptide [5, 10]: 1.3 mM

L-Tyr-L-Gln
Formed peptide ([4]; 150 mM L-glutamine): 3.4 mM | Produced peptide ([5]; Table 15-2, L-Gln 150 mM): 0.6 mM

L-Val-L-Gln
Formed peptide ([4]; 150 mM L-glutamine): 15.4 mM | Produced peptide ([5]; Table 15-2, L-Gln 150 mM): 8.2 mM

L-Val-L-Met
Formed peptide [3]: 10.5 mM | Formed peptide ([4]; L-amino acid 150 mM): 10.3 mM | Produced peptide [5, 10]: 6.8 mM

L-Val-L-Phe
Formed peptide ([4]; L-amino acid 150 mM): 6.1 mM | Produced peptide [5, 10]: 1.0 mM

L-Val-L-Ser
Formed peptide ([4]; L-amino acid 150 mM): 30.8 mM | Produced peptide [5, 10]: 31.9 mM

α-L-Asp-L-Gln
Formed peptide (mM) ([4]; 150 mM L-glutamine): tr | Produced peptide ([5]; Table 15-2, L-Gln 150 mM): 0.05 mM

B1: Papain: thiol endopeptidase described in EP 359399B1, purified enzyme manufactured by Sigma (protein, UniProt P00784 134-345, looked up)
Papain: IPEYVDWRQKGAVTPVKNQGSCGSCWAFSAVVTIEGIIKIRTGNLNEYSEQELLDCDRRSYGCNGGYPWSALQLVAQYGIHYRNTYPYEGVQRYCRSREKGPYAAKTDGVRQVQPYNEGALLYSIANQPVSVVLEAAGKDFQLYRGGIFVGPCGNKVDHAVAAVGYGPNYILIKNSWGTGWGENGYIRIKRGTGNSYGVCGLYTSSFYPVKN
Ratio of L-Ala-L-Gln production rate per enzyme unit weight [2]: 0.0021
